Data taken from US20230083973A1, “SUBSTITUTED CYCLOPROPYL-2,2'-BIP[…], ANALOGUES THEREOF, AND METHODS USING SAME” (priority 2019, published 2023).

Test system: HBsAg
Experiment: HBsAg assay: inhibition of HBsAg in HepG2.2.15 cells (chemiluminescence immunoassay of supernatant)
Assay type: cell-based, hepatitis B virus
Conditions: Hepatitis B virus, HepG2.2.15, 144 h, read-out: sAg EC50, HepG2.2.15 cells; HBsAg in supernatant at day 6 after exposure to compound; 0.5% DMSO
Outline: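 Secreted HBsAg quantified by CLIA in day-6 supernatants of HepG2.2.15 cultures given compound dilutions at 0.5% final DMSO, with one compound/medium replenishment after 2–3 days. Dose-response fits gave EC50 (50% inhibition); viability checked separately by CellTiter-Glo.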

Compound | EC50 [nM]
Fc1cc([C@@H]2C[C@H]2c2cnc(-c3ncccn3)nc2)cc2ccccc12 (relative stereo) [Example 169, trans-5-(2-(4-Fluoronaphthalen-2-yl)cyclopropyl)-2,2′-bipyrimidine] | 36
CN(CCO)c1cc([C@@H]2C[C@H]2c2cnc(-c3ncccn3)nc2)cc(F)c1F (relative stereo) [Example 244, trans-2-((5-(2-([2,2′-Bipyrimidin]-5-yl)cyclopropyl)-2,3-difluorophenyl)(methyl)amino)ethan-1-ol] | 92
O[C@@H]1CCN(c2cc(C3CC3c3cnc(-c4ncccn4)nc3)ccc2F)C1 (single isomer, unassigned) [Example 69] | 170
COc1ccc(C2CC2c2cnc(-c3ncccn3)nc2)cc1F (single isomer, unassigned) [Example 12, trans-5-(2-(3-Fluoro-4-methoxyphenyl)cyclopropyl)-2,2′-bipyrimidine] | 110
Fc1ccc(C2CC2c2cnc(-c3ncccn3)nc2)cc1N1CCCC1 (single isomer, unassigned) [Example 19, trans-5-(2-(4-Fluoro-3-(pyrrolidin-1-yl)phenyl)cyclopropyl)-2,2′-bipyrimidine] | 39
COc1ccc(C2CC2c2cnc(-c3ncccn3)nc2)cc1OC (single isomer, unassigned) [Example 31, trans-5-(2-(3,4-Dimethoxyphenyl)cyclopropyl)-2,2′-bipyrimidine] | 330
COCCCn1cnc2c(F)cc([C@@H]3C[C@H]3c3cnc(-c4ncccn4)nc3)cc21 (relative stereo) [Example 274, trans-6-(2-([2,2′-Bipyrimidin]-5-yl)cyclopropyl)-4-fluoro-1-(3-methoxypropyl)-1H-benzo[d]imidazole] | 64
Fc1cc([C@@H]2C[C@H]2c2cnc(-c3ncccn3)nc2)cc(OC2CC3(COC3)C2)c1F (relative stereo) [Example 243, trans-5-(2-(3-((2-Oxaspiro[3.3]heptan-6-yl)oxy)-4,5-difluorophenyl)cyclopropyl)-2,2′-bipyrimidine] | 110
COCCCn1cc2c(F)cc([C@@H]3C[C@H]3c3cnc(-c4ncccn4)nc3)cc2n1 (relative stereo) [Example 267, trans-6-(2-([2,2′-Bipyrimidin]-5-yl)cyclopropyl)-4-fluoro-2-(3-methoxypropyl)-2H-indazole] | 13
COc1cc([C@@H]2C[C@H]2c2cnc(-c3ncccn3)nc2)cc(C(F)(F)F)c1 (relative stereo) [Example 163, trans-5-(2-(3-Methoxy-5-(trifluoromethyl)phenyl)cyclopropyl)-2,2′-bipyrimidine] | 140

Same assay, conditions: read-out: sAg EC50; HepG2.2.15 cells; HBsAg in supernatant at day 6 after exposure to compound; 0.5% DMSO

Compound | EC50 [nM]
CCc1cc(F)c(OC)cc1C1CC1c1cnc(-c2ncccn2)nc1 (single isomer, unassigned) [Example 36, trans-5-(2-(2-Ethyl-4-fluoro-5-methoxyphenyl)cyclopropyl)-2,2′-bipyrimidine] | 720
COc1cc(C2CC2c2cnc(-c3ncccn3)nc2)ccc1F (single isomer, unassigned) [Example 11, trans-5-(2-(4-Fluoro-3-methoxyphenyl)cyclopropyl)-2,2′-bipyrimidine] | 730
CC1(C)CN(c2cc(C3CC3c3cnc(-c4ncccn4)nc3)cc(F)c2F)C1 (single isomer, unassigned) [Example 139, trans-5-(2-(3-(3,3-Dimethylazetidin-1-yl)-4,5-difluorophenyl)cyclopropyl)-2,2′-bipyrimidine] | 88
COc1cc(C2CC2c2cnc(-c3ncccn3)nc2)cc(Cl)c1Cl (single isomer, unassigned) [Example 60, trans-5-(2-(3,4-Dichloro-5-methoxyphenyl)cyclopropyl)-2,2′-bipyrimidine] | 250
COCCOc1cc(C2CC2c2cnc(-c3ncccn3)nc2)ccc1F (single isomer, unassigned) [Example 22, trans-5-(2-(4-Fluoro-3-(2-methoxyethoxy)phenyl)cyclopropyl)-2,2′-bipyrimidine] | 59
CN1CC[C@@H](Nc2cc(C3CC3c3cnc(-c4ncccn4)nc3)cc(F)c2F)C1 (single isomer, unassigned) [Example 230] | 7000
Fc1cc(C2CC2c2cnc(-c3ncccn3)nc2)cc(N2CC(c3ccccc3)C2)c1F (single isomer, unassigned) [Example 256, trans-5-(2-(3,4-Difluoro-5-(3-phenylazetidin-1-yl)phenyl)cyclopropyl)-2,2′-bipyrimidine] | 28
CN(C)c1cc(C2CC2c2cnc(-c3ncccn3)nc2)ccc1F (single isomer, unassigned) [Example 64, trans-5-(2-([2,2′-Bipyrimidin]-5-yl)cyclopropyl)-2-fluoro-N,N-dimethylaniline] | 3000
COc1cc(C2CC2c2cnc(-c3ncccn3)nc2-c2ccc3nc(C)sc3c2)ccc1F (single isomer, unassigned) [Example 140, trans-6-(5-(2-(4-Fluoro-3-methoxyphenyl)cyclopropyl)-[2,2′-bipyrimidin]-4-yl)-2-methylbenzo[d]thiazole] | 37000
COc1cc(C2CC2c2cnc(-c3ncccn3)nc2C(C)C)ccc1F (single isomer, unassigned) [Example 74, trans-5-(2-(4-Fluoro-3-methoxyphenyl)cyclopropyl)-4-isopropyl-2,2′-bipyrimidine] | 10000
COc1cnn(-c2cc(C3CC3c3cnc(-c4ncccn4)nc3)cc(F)c2F)c1 (single isomer, unassigned) [Example 251, trans-5-(2-(3,4-Difluoro-5-(4-methoxy-1H-pyrazol-1-yl)phenyl)cyclopropyl)-2,2′-bipyrimidine] | 41
Fc1cn(-c2cc(C3CC3c3cnc(-c4ncccn4)nc3)cc(F)c2F)cc1F (single isomer, unassigned) [Example 257, trans-5-(2-(3-(3,4-Difluoro-1H-pyrrol-1-yl)-4,5-difluorophenyl)cyclopropyl)-2,2′-bipyrimidine] | 140
CC1(C)CCN(c2cc(C3CC3c3cnc(-c4ncccn4)nc3)cc(F)c2F)C1 (single isomer, unassigned) [Example 220, trans-5-(2-(3-(3,3-Dimethylpyrrolidin-1-yl)-4,5-difluorophenyl)cyclopropyl)-2,2′-bipyrimidine] | 30
COc1cc(C2CC2c2cnc(-c3ncccn3)nc2OC)ccc1F (single isomer, unassigned) [Example 80, trans-5-(2-(4-Fluoro-3-methoxyphenyl)cyclopropyl)-4-methoxy-2,2′-bipyrimidine] | 100
COc1c(Cl)ccc(C2CC2c2cnc(-c3ncccn3)nc2)c1OC (single isomer, unassigned) [Example 114, trans-5-(2-(4-Chloro-2,3-dimethoxyphenyl)cyclopropyl)-2,2′-bipyrimidine] | 3000
COc1cc(C2CC2c2cnc(-c3ncccn3)nc2N2CCCCC2)ccc1F (single isomer, unassigned) [Example 145, trans-5-(2-(4-Fluoro-3-methoxyphenyl)cyclopropyl)-4-(piperidin-1-yl)-2,2′-bipyrimidine] | 700
CC(=O)N1CC[C@H](Nc2cc(C3CC3c3cnc(-c4ncccn4)nc3)cc(F)c2F)C1 (single isomer, unassigned) [Example 225] | 350
Fc1cc(C2CC2c2cnc(-c3ncccn3)nc2)cc(O[C@H]2CCOC2)c1F (single isomer, unassigned) [Example 250] | 76
